Experimental data reported in US6043220A, “Threonine-containing protegrins” (IntraBiotics Pharmaceuticals, Inc., priority 1997, dated 2000).
≈ marks a conversion by molar mass, not a printed value. Square brackets hold non-standard residues; d marks the D form. Ends that are not written are not given here. Dbu = diaminobutyric acid (X in this publication); code O = not defined here; Orn = NCCC[C@H](N)C(=O)O

How the values were obtained:
[1] = system: ME-180 (human cervical carcinoma) cells; assay: Cytotoxicity, MTT assay; type: cell-based; conditions: ME-180 cells
Method: Native protegrin PG-1 (SEQ ID NO:1) and melittin (SEQ ID NO:19) were tested as controls.

[2] = system: Pseudomonas aruginosa (Psa); assay: MIC, antimicrobial activity against Psa; type: cell-based
Source text: (§1) Methods were as described in WO 97/18826.

[3] = system: methicillin resistant Staphylococcus aureus (MRSA); assay: MIC, antimicrobial activity against MRSA; type: cell-based
Source text: as §1

[4] = system: vancomycin resistant Enterococcus faecium (VREF); assay: MIC, antimicrobial activity against VREF; type: cell-based
Source text: as §1

[5] = system: Candida albicans (C. alb); assay: MIC, antimicrobial activity against C. alb; type: cell-based
Source text: as §1

E. coli [6] = assay: In vitro serum availability, MCZ assay, indicator bacteria E. coli; type: cell-based; conditions: 50 μg/mL peptide; 90% serum as diluent; activity in serum vs same peptide without serum (100%)
Method: (§2) Peptide was tested at 50 μg/ml against two different strains of indicator bacteria (E. coli and VRE) both in the presence and absence of serum. For experiments performed in the presence of serum, 90% serum was used as the peptide diluent. Native PG-1 (SEQ ID NO:1) was tested as a control.
(§3) Percent availability refers to the activity of the indicated peptide in serum as compared with the activity of the same peptide in the absence of serum (assigned a value of 100%).

VRE = assay: In vitro serum availability, MCZ assay, indicator bacteria VRE; type: cell-based, vancomycin-resistant Enterococcus faecium or faecalis; conditions: 50 μg/mL peptide; 90% serum as diluent; activity in serum vs same peptide without serum (100%)
Method: as §2, §3

human red blood cells = assay: Hemolytic activity against human red blood cells; conditions: FIG. 1; compared with native PG-1 and melittin
Method: In the assay, various concentrations of peptides were incubated with human red blood cells and the percentage of hemolysis determined.

E. coli [7] = assay: Antimicrobial activity against E. coli in borate buffered saline with and without lysozyme; type: cell-based; conditions: presence vs absence of lysozyme
Source text: The protegrins of the invention retain their activity against microbes in the context of borate solutions that are commonly used in eye care products. […] This effect was more pronounced when the PG-3 was autoclaved and similar patterns were obtained for both the free-acid and the amide forms. Accordingly, the protegrins may be used as preservatives in such compositions or as antimicrobials for treatment of eye infections, such as conjunctivitis and corneal ulcers.

Compound	EC50, MTT assay [1] [µg/mL]	MIC Psa [2] [μ g/ml]	MIC MRSA [3] [μ g/ml]	MIC VREF [4] [μ g/ml]	MIC C. alb. [5] [μ g/ml]	In Vitro Serum Availability (%) E. coli (E. coli [6]) [%]	In Vitro Serum Availability (%) VRE (VRE) [%]	hemolytic activity against human red blood cells (in words) (human red blood cells)	effect of lysozyme on antimicrobial effectiveness (E. coli [7])	cytotoxicity compared with native PG-1 and melittin (in words) ([1]; MTT assay)
CC[C@H](C)[C@H](NC(=O)CN)C(=O)NCC(=O)N[C@@H](C)C(=O)N[C@H](C(=O)N[C@@H](CC(C)C)C(=O)N[C@@H](CCCCN)C(=O)N[C@H](C(=O)N[C@@H](CC(C)C)C(=O)N[C@H](C(=O)N[C@H](C(=O)NCC(=O)N[C@@H](CC(C)C)C(=O)N1CCC[C@H]1C(=O)N[C@@H](C)C(=O)N[C@@H](CC(C)C)C(=O)N[C@H](C(=O)N[C@@H](CO)C(=O)N[C@@H](Cc1c[nH]c2ccccc12)C(=O)N[C@H](C(=O)N[C@@H](CCCCN)C(=O)N[C@@H](CCCNC(=N)N)C(=O)N[C@@H](CCCCN)C(=O)N[C@@H](CCCNC(=N)N)C(=O)N[C@@H](CCC(N)=O)C(=O)N[C@@H](CCC(N)=O)C(N)=O)[C@@H](C)CC)[C@@H](C)CC)[C@@H](C)O)[C@@H](C)O)C(C)C)C(C)C [Melittin, reference compound]	8.0 (≈ 2.81 µM)	–	–	–	–	–	–	–	–	–
JTCYCOOOFCVCV-NH2	–	2	32	6.67	> 64	–	–	–	–	–
WTCYCOOOFCVCV-NH2 (WTCYC[code O][code O][code O]FCVCV-NH2; cysteine pairing not given here; reading uncertain; also: printed as WTCYCOOOFCVCV-NH2)	–	1	16	0.25	1.6	4	2	–	–	–
OTTLCYCOGOFCVCVGO-NH2 ([Orn]TTLCYC[Orn]G[Orn]FCVCVG[Orn]-NH2; cysteine pairing not given here)	–	0.5	32	1	32	10	3	–	–	–
CC(C)C[C@H](NC(=O)[C@H](CCCNC(=N)N)NC(=O)CNC(=O)CNC(=O)[C@@H](N)CCCNC(=N)N)C(=O)N[C@H]1CSSC[C@@H](C(=O)N[C@H](C(=O)NCC(=O)N[C@@H](CCCNC(=N)N)C(N)=O)C(C)C)NC(=O)[C@H](C(C)C)NC(=O)[C@@H]2CSSC[C@H](NC(=O)[C@H](Cc3ccc(O)cc3)NC1=O)C(=O)N[C@@H](CCCNC(=N)N)C(=O)N[C@@H](CCCNC(=N)N)C(=O)N[C@@H](CCCNC(=N)N)C(=O)N[C@@H](Cc1ccccc1)C(=O)N2 [Native PG-1, RGGRLCYCRRRFCVCVGR-NH2, reference compound]	–	–	–	–	–	–	–	hemolytic against human red blood cells	–	–
JTCFCOOOFCTCV-NH2	–	16	> 128	32	> 128	–	–	–	–	–
PG-3: naturally-occurring protegrin from porcine leukocytes; free-acid and amide forms (RGGGLCYCRRRFCVCVGR; ends and bridges not checked; also: free acid or amide forms; UniProt P32196 131-148, looked up)	–	–	–	–	–	–	–	–	the presence of lysozyme enhanced the effectiveness	–
RGGRLCYCRRRFCVCTGR-NH2 (ends and bridges not checked) [[^16 T]PG-1]	122.6	–	–	–	–	–	–	decreased hemolytic activity	–	–
XTXLCYCXXXFCTCV-NH2 ([Dbu]T[Dbu]LCYC[Dbu][Dbu][Dbu]FCTCV-NH2; not fully specified (N-terminus); cysteine pairing not given here) [*XTXLCYCXXXFCTCV-NH2]	–	1.3	16	1	8	–	–	–	–	–
RGGRTCYCRRRFCVCVGR-NH2 (ends and bridges not checked) [[^5 T]PG-1]	101.3	2	8	0.3	8	10	1.6	decreased hemolytic activity	–	–
JLCFCOOOFCTCV-NH2	–	4	64	2	64	–	–	–	–	–
OGGOTCYCOOOFCVCVGO-NH2 ([code O]GG[code O]TCYC[code O][code O][code O]FCVCVG[code O]-NH2; cysteine pairing not given here; reading uncertain; also: printed as OGGOTCYCOOOFCVCVGO-NH2)	–	1	> 64	3.3	> 64	40	9	–	–	–
RGGRLCTCRRRFCVCVGR-NH2 (ends and bridges not checked) [[^7 T]PG-1]	50.4	–	–	–	–	–	–	decreased hemolytic activity	–	–
RGGRLCYCRRRFCTCVGR-NH2 (ends and bridges not checked) [[^14 T]PG-1]	154.8	–	–	–	–	–	–	decreased hemolytic activity	–	less cytotoxic than native PG-1 and the control peptide melittin
OTOLCYCOZOFCVCV-NH2	–	2	64	8	> 64	30	8	–	–	–
